# In the kinase profiling compilation of Christmann-Franck et al. (2016):
# Legend:
# Assay in all cases: KINOMEscan competition binding
# Settings in all cases: compound 10.0 µM
# RIPK2 (human) = RIPK2 (human) (UniProt O43353)
# DAPK3 (human) = DAPK3 (human) (UniProt O43293)
# MAPK12 (human) = MAPK12 (human) (UniProt P53778)
# PLK3 (human) = PLK3 (human) (UniProt Q9H4B4)
# DDR2 (human) = DDR2 (human) (UniProt Q16832)
# CAMKK1 (human) = CAMKK1 (human) (UniProt Q8N5S9)
# IRAK3 (human) = IRAK3 (human) (UniProt Q9Y616)
# ACVR1B (human) = ACVR1B (human) (UniProt P36896)
# FGFR4 (human) = FGFR4 (human) (UniProt P22455)
# PIK3CD (human) = PIK3CD (human) (UniProt O00329)
# EPHA7 (human) = EPHA7 (human) (UniProt Q15375)
# RIOK2 (human) = RIOK2 (human) (UniProt Q9BVS4)
# [1] = system: FGFR3 (human), P22607 [G697C]
# TNK2 (human) = TNK2 (human) (UniProt Q07912)
# STK3 (human) = STK3 (human) (UniProt Q13188)
# MAP3K10 (human) = MAP3K10 (human) (UniProt Q02779)
# PAK6 (human) = PAK6 (human) (UniProt Q9NQU5)
# BMPR2 (human) = BMPR2 (human) (UniProt Q13873)
# YSK4 (human) = YSK4 (human) (UniProt Q56UN5)
# MARK1 (human) = MARK1 (human) (UniProt Q9P0L2)
# OXSR1 (human) = OXSR1 (human) (UniProt O95747)
# RPS6KA4 KD1 (human) = RPS6KA4 KD1 (human) (UniProt O75676)
# PIK3C2B (human) = PIK3C2B (human) (UniProt O00750)
# CAMKK2 (human) = CAMKK2 (human) (UniProt Q96RR4)
# [2] = system: BMX (human), P51813 [V600E]
# MAP2K4 (human) = MAP2K4 (human) (UniProt P45985)
# NEK9 (human) = NEK9 (human) (UniProt Q8TD19)
# MAPK7 (human) = MAPK7 (human) (UniProt Q13164)
# BRSK1 (human) = BRSK1 (human) (UniProt Q8TDC3)
# TIE1 (human) = TIE1 (human) (UniProt P35590)
# [3] = system: PIK3CA (human), P42336 [E542K]
# PLK2 (human) = PLK2 (human) (UniProt Q9NYY3)
# MLTK (human) = MLTK (human) (UniProt Q9NYL2)
# FLT1 (human) = FLT1 (human) (UniProt P17948)
# GRK4 (human) = GRK4 (human) (UniProt P32298)
# PHKG2 (human) = PHKG2 (human) (UniProt P15735)
# SIK1 (human) = SIK1 (human) (UniProt P57059)
# CPK1 (P.falciparum) = system: CPK1 (P.falciparum)
# MAP2K7 (human) = MAP2K7 (human) (UniProt O14733)
# RPS6KA4 KD1 (human), sequence (O75676 whole entry, looked up): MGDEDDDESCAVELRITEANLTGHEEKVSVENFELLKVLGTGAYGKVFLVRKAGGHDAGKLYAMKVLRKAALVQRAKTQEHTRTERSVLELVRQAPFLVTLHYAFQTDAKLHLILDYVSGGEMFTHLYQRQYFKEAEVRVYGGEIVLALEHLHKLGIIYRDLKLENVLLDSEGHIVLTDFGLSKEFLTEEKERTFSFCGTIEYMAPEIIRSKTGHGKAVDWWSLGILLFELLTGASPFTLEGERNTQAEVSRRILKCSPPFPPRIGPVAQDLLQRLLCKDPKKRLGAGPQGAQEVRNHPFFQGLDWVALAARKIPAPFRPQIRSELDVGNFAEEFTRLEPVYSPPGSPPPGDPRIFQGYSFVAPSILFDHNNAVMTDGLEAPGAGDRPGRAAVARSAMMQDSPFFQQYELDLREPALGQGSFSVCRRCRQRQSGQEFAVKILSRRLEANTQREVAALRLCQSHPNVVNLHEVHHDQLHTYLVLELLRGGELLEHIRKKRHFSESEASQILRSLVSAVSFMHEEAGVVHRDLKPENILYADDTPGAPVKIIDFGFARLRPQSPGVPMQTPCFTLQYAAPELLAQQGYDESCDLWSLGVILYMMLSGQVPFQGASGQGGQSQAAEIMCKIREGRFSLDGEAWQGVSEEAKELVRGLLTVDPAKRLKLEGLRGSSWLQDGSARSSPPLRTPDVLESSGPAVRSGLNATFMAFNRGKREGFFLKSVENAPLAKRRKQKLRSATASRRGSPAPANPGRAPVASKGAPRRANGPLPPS
# PIK3CA (human), P42336 [E542K], sequence (P42336 whole entry E542K, looked up): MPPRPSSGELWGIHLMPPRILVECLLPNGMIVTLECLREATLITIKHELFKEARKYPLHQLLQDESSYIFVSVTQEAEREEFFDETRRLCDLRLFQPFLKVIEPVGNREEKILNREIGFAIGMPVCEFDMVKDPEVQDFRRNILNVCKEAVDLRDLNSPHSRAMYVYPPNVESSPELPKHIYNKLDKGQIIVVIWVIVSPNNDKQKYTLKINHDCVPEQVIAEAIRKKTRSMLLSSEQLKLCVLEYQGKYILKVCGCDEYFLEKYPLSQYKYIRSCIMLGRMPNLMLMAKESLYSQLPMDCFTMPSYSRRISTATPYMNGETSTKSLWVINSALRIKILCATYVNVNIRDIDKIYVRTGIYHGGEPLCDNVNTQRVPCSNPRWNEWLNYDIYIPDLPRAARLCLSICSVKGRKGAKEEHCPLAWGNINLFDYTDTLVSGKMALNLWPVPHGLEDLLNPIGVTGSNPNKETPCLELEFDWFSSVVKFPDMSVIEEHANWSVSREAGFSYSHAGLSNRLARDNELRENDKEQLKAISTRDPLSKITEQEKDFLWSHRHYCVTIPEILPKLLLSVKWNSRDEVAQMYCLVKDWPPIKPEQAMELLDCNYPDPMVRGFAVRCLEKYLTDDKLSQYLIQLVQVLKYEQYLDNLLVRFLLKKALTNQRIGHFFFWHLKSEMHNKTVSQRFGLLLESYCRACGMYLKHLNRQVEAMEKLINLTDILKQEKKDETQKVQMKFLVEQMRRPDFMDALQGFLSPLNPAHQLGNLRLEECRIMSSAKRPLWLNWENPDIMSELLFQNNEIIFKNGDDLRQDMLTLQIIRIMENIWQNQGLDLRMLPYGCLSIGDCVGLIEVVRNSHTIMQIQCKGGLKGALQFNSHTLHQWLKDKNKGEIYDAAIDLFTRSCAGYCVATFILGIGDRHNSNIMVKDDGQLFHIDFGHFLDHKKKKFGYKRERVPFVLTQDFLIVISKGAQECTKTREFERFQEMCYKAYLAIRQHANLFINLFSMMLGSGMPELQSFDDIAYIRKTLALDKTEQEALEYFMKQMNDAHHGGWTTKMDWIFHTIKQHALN
# DAPK3 (human), sequence (O43293 whole entry, looked up): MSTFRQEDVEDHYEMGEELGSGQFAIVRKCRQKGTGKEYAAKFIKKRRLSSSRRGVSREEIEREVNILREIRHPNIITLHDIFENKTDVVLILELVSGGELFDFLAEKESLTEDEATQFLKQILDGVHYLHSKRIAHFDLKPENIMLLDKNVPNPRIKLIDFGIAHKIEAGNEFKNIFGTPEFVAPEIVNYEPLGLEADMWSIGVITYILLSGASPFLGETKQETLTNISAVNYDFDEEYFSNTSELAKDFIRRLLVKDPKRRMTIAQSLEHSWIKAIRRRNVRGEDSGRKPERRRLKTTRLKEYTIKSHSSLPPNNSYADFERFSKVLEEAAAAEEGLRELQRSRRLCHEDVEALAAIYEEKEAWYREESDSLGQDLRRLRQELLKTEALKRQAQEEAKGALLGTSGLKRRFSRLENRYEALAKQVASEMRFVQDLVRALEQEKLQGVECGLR
# YSK4 (human), sequence (Q56UN5 whole entry, looked up): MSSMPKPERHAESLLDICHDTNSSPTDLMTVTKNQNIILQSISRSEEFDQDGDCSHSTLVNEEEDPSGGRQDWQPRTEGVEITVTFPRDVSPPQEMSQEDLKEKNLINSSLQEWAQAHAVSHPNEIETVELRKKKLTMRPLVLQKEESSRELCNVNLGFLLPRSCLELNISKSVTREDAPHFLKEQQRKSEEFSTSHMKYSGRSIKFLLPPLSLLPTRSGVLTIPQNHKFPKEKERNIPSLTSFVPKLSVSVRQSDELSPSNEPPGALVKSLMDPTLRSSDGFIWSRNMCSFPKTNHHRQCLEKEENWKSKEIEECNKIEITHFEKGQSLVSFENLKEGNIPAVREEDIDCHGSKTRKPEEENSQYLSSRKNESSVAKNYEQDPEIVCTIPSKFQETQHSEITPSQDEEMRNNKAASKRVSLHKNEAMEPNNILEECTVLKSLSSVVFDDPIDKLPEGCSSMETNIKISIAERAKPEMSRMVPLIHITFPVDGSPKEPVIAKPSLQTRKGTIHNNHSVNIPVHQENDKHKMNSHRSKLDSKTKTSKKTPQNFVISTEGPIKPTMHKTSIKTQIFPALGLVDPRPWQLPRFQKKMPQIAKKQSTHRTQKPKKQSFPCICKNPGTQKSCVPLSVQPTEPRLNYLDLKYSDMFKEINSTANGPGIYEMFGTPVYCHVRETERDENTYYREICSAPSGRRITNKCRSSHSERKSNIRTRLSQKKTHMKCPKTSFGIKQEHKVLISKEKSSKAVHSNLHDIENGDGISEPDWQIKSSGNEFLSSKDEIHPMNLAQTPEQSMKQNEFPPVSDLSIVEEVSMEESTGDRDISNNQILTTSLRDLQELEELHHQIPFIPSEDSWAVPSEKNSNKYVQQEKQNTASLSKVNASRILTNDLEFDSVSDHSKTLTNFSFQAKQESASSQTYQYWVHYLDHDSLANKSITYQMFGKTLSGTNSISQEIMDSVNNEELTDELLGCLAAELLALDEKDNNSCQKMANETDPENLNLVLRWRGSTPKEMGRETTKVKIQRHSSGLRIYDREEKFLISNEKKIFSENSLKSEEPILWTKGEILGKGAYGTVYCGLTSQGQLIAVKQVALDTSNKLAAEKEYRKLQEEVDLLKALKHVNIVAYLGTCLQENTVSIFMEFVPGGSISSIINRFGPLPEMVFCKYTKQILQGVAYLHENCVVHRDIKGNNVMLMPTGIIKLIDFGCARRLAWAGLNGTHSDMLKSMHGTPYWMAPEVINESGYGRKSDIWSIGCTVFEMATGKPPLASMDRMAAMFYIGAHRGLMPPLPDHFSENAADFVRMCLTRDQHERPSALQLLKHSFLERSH
# PAK6 (human), sequence (Q9NQU5 whole entry, looked up): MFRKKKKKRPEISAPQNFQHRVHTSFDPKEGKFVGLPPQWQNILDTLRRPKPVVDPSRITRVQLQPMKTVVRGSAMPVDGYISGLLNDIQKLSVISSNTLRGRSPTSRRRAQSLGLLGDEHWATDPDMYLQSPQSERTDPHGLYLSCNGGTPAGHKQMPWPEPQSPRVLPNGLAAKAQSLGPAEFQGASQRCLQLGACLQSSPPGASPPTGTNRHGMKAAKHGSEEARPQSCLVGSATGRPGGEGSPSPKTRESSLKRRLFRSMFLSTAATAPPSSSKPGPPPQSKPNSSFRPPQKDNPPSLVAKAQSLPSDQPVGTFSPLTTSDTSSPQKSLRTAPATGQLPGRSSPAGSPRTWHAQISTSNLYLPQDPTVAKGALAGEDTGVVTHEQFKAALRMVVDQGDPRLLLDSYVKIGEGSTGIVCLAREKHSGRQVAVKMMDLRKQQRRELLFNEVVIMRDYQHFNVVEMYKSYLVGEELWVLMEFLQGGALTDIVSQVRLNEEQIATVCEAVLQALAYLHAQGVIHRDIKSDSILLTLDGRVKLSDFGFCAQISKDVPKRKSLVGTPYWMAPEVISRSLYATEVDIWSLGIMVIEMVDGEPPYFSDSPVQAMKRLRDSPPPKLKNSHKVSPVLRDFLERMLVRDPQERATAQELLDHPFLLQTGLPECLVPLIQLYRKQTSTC
# MLTK (human), sequence (Q9NYL2 whole entry, looked up): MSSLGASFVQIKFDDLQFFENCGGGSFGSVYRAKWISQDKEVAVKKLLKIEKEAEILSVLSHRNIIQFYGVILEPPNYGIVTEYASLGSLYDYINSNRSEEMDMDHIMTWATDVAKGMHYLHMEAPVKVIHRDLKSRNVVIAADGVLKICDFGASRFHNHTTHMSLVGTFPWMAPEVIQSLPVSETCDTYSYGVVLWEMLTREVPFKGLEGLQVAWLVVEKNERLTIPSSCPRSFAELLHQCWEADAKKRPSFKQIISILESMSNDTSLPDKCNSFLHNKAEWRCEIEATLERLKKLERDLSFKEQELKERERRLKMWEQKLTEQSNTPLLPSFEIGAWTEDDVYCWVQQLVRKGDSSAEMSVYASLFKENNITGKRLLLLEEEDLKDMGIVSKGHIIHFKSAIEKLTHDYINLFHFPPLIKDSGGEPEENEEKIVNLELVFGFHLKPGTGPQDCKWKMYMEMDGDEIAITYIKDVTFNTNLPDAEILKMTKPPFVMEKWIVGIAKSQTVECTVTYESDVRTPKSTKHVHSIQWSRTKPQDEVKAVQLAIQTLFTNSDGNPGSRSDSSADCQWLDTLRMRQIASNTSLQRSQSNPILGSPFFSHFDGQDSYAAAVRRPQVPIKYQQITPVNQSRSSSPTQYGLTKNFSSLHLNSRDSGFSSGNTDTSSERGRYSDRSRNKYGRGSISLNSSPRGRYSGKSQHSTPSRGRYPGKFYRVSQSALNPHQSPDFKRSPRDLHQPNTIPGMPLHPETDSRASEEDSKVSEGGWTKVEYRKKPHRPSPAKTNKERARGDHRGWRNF
SMILES,"kinase still bound, per cent of control (RIPK2 (human))","kinase still bound, per cent of control (DAPK3 (human))","kinase still bound, per cent of control (MAPK12 (human))","kinase still bound, per cent of control (PLK3 (human))","kinase still bound, per cent of control (DDR2 (human))","kinase still bound, per cent of control (CAMKK1 (human))","kinase still bound, per cent of control (IRAK3 (human))","kinase still bound, per cent of control (ACVR1B (human))","kinase still bound, per cent of control (FGFR4 (human))","kinase still bound, per cent of control (PIK3CD (human))","kinase still bound, per cent of control (EPHA7 (human))","kinase still bound, per cent of control (RIOK2 (human))","kinase still bound, per cent of control [1]","kinase still bound, per cent of control (TNK2 (human))","kinase still bound, per cent of control (STK3 (human))","kinase still bound, per cent of control (MAP3K10 (human))","kinase still bound, per cent of control (PAK6 (human))","kinase still bound, per cent of control (BMPR2 (human))","kinase still bound, per cent of control (YSK4 (human))","kinase still bound, per cent of control (MARK1 (human))",further results
Cc1cn(-c2cc(C(=O)Nc3ccc(C)c(NC(=O)c4ccno4)c3)cc(C(F)(F)F)c2)cn1,100%,100%,100%,100%,15%,100%,100%,100%,100%,100%,100%,100%,100%,100%,100%,100%,100%,100%,100%,100%,"kinase still bound, per cent of control (OXSR1 (human)): 100%; kinase still bound, per cent of control (RPS6KA4 KD1 (human)): 100%; kinase still bound, per cent of control (PIK3C2B (human)): 100%; kinase still bound, per cent of control (CAMKK2 (human)): 100%; kinase still bound, per cent of control [2]: 1.3%; kinase still bound, per cent of control (MAP2K4 (human)): 100%; kinase still bound, per cent of control (NEK9 (human)): 100%; kinase still bound, per cent of control (MAPK7 (human)): 100%; kinase still bound, per cent of control (BRSK1 (human)): 100%; kinase still bound, per cent of control (TIE1 (human)): 100%; kinase still bound, per cent of control [3]: 100%; kinase still bound, per cent of control (PLK2 (human)): 100%; kinase still bound, per cent of control (MLTK (human)): 7.8%; kinase still bound, per cent of control (FLT1 (human)): 100%; kinase still bound, per cent of control (GRK4 (human)): 100%; kinase still bound, per cent of control (PHKG2 (human)): 100%; kinase still bound, per cent of control (SIK1 (human)): 100%"
CCOc1cc(N2CCC(O)CC2)ccc1Nc1ncc2c(n1)N(C)c1ccccc1C(=O)N2C,100%,100%,100%,100%,100%,100%,100%,100%,100%,100%,100%,100%,100%,17%,100%,100%,100%,100%,100%,100%,"kinase still bound, per cent of control (OXSR1 (human)): 100%; kinase still bound, per cent of control (RPS6KA4 KD1 (human)): 100%; kinase still bound, per cent of control (PIK3C2B (human)): 100%; kinase still bound, per cent of control (CAMKK2 (human)): 100%; kinase still bound, per cent of control [2]: 100%; kinase still bound, per cent of control (MAP2K4 (human)): 100%; kinase still bound, per cent of control (NEK9 (human)): 100%; kinase still bound, per cent of control (MAPK7 (human)): 0%; kinase still bound, per cent of control (BRSK1 (human)): 100%; kinase still bound, per cent of control (TIE1 (human)): 100%; kinase still bound, per cent of control [3]: 100%; kinase still bound, per cent of control (PLK2 (human)): 100%; kinase still bound, per cent of control (MLTK (human)): 100%; kinase still bound, per cent of control (FLT1 (human)): 100%; kinase still bound, per cent of control (GRK4 (human)): 100%; kinase still bound, per cent of control (PHKG2 (human)): 100%; kinase still bound, per cent of control (SIK1 (human)): 100%"
CCc1nc(-c2cccc(C)c2)c(-c2ccnc(NC(=O)c3ccccc3)c2)s1,1.2%,83%,100%,98%,16%,100%,84%,4.6%,100%,100%,92%,92%,93%,78%,97%,100%,98%,90%,64%,100%,"kinase still bound, per cent of control (CPK1 (P.falciparum)): 22%; kinase still bound, per cent of control (OXSR1 (human)): 100%; kinase still bound, per cent of control (MAP2K7 (human)): 100%; kinase still bound, per cent of control (RPS6KA4 KD1 (human)): 100%; kinase still bound, per cent of control (PIK3C2B (human)): 100%; kinase still bound, per cent of control (CAMKK2 (human)): 100%; kinase still bound, per cent of control [2]: 23%; kinase still bound, per cent of control (MAP2K4 (human)): 95%; kinase still bound, per cent of control (NEK9 (human)): 100%; kinase still bound, per cent of control (MAPK7 (human)): 98%; kinase still bound, per cent of control (BRSK1 (human)): 93%; kinase still bound, per cent of control (TIE1 (human)): 96%; kinase still bound, per cent of control [3]: 100%; kinase still bound, per cent of control (PLK2 (human)): 100%; kinase still bound, per cent of control (MLTK (human)): 9.4%; kinase still bound, per cent of control (FLT1 (human)): 31%; kinase still bound, per cent of control (GRK4 (human)): 100%; kinase still bound, per cent of control (PHKG2 (human)): 76%; kinase still bound, per cent of control (SIK1 (human)): 100%"
